Experimental data taken from US20240307362A1 (priority 2019, published 2024).

tested on: Ba/F3-ERBB2-A775_G776insYVMA; assay: Ba/F3 cell survival assay, ERBB2 A775_G776insYVMA; format: cell-based; conditions: Mus musculus, BaF3, 48 h, read-out: BA/F3 (ERBB2 A775_G776 insYVMA) IC50
Procedure: 293T cells from ATCC were transfected with pBABEpuro expression constructs for mutant EGFR (V769_D770insASV, D770_N771insNPG, N771_P772insH, H773_V774insNPH, E746_A750del, L858R, D770_N771 insSVD C797S, E746_A750del C797S, L858R C797S, L861Q) or mutant ERBB2 (A775_G776insYVMA) and pCL-Eco packaging vector using Fugene-6 transfection reagent from Promega. Plates were incubated at 37° C. for 48 h. Retrovirus was harvested by filtering the media supernatant through a 0.45 μm filter.
Ba/F3 cells purchased from DSMZ were grown in RPMI+10% FBS+10 ng/mL IL-3 and infected with filtered retroviral supernatant at a 1:2 dilution. Polybrene was added to a concentration of 8 μg/mL, plates were spun for 90 min, and incubated overnight at 37° C. 2 μg/mL puromycin was added to the infected cells 24 h after infection and cells were continually grown in the presence of puromycin and 10 ng/mL IL-3. Following stably expressing Ba/F3 cell lines were generated: Ba/F3-EGFR-V769_D770insASV, Ba/F3-EGFR-D770_N771insNPG, Ba/F3-EGFR-N771_P772insH, Ba/F3-EG, Ba/F3-EGFR-H773_V774insNPH, Ba/F3-EGFR-E746_A750del, Ba/F3-EGFR-L858R, Ba/F3-EGFR-D770_N771 insSVD C797S, Ba/F3-EGFR-E746_A750del C797S, Ba/F3-EGFR-L858R C797S, Ba/F3-EGFR L861Q and Ba/F3-ERBB2-A775_G776insYVMA (Ba/F3—vector-control).
For cell survival assays, Ba/F3 cells were grown to a density of 1-2 million cells per mL, spun down and resuspended in media without IL-3, and replated at a concentration 200,000-500,000 cells per mL. The cells ectopically expressing WT EGFR plated with 10 ng/mL Millipore Culture grade EGF and Ba/F3 cells containing mutant EGFR or Mutant ERBB2 were cultivated without EGF. The cells ectopically expressing pBABEpuro empty vector were plated with 10 ng/mL IL-3.
2 days later, cells were plated in 50 μL in a 384 well plate at a concentration of 4000 cells per well for cells assayed in the absence of IL-3 and 2000 cells per well for cells assayed in the presence of IL-3. 100 nL of compound was added to each well using a 100 nL pin head, and plates were incubated at 37° C. for 48 h.
Cell viability was measured by adding 20 μL of Cell Titer-Glo Luminescent Cell Viability Reagent diluted 1:3 in PBS. Plates were sealed with Perkin Elmer Top-Seal, inverted several times to mix, and immediately centrifuged at 1000 rpm for 2 min. Plates were incubated in low light conditions for 8-10 min and luminescence was measured.

| Compound | IC50 |
| --- | --- |
| COc1c(Cl)cccc1Nc1c(-c2ccncc2OC[C@@H]2CCO2)[nH]c2c1C(=O)NCC2 [Example 2, 3-(3-chlor-2-methoxyanilino)-2-{3-[(2S)-oxetan-2-ylmethoxy]pyridin-4-yl}-1,5,6,7-tetrahydro-4H-pyrrolo[3,2-c]pyridin-4-on] | 11.4 nM |
| COc1c(Cl)cccc1Nc1c(-c2ccncc2OCC2(C)CCO2)[nH]c2c1C(=O)NCC2 (single isomer, unassigned; (+)) [Example 48, (+)-3-(3-chloro-2-methoxyanilino)-2-{3-[(2-methyloxetan-2-yl)methoxy]pyridin-4-yl}-1,5,6,7-tetrahydro-4H-pyrrolo[3,2-c]pyridin-4-one] | 12.9 nM |
| COc1c(Cl)cccc1Nc1c(-c2ccncc2OCC2OCC2(C)C)[nH]c2c1C(=O)NCC2 (single isomer, unassigned; (+)) [Example 50, (+)-3-(3-chloro-2-methoxyanilino)-2-{3-[(3,3-dimethyloxetan-2-yl)methoxy]pyridin-4-yl}-1,5,6,7-tetrahydro-4H-pyrrolo[3,2-c]pyridin-4-one] | 12.4 nM |
| COc1c(Cl)cccc1Nc1c(-c2ccncc2OCCC2CCO2)[nH]c2c1C(=O)NCC2 (single isomer, unassigned; (-)) [Example 26, (−)-3-(3-chloro-2-methoxyanilino)-2-{3-[2-(oxetan-2-yl)ethoxy]pyridin-4-yl}-1,5,6,7-tetrahydro-4H-pyrrolo[3,2-c]pyridin-4-one] | 8.39 nM |
